Laboratory results as given in ChEMBL document CHEMBL6153089, “Design, Synthesis, and Biological Evaluation of Thieno[3,2-d]pyrimidine Derivatives as the First Bifunctional PI3Kδ Isoform Selective/Bromodomain and Extra-Terminal Inhibitors” (J Med Chem, 2025).
Active and inactive are the calls of the source. The calls are words filed in the database; no cut-off is given here.

Tests used:
[1] = target: Phosphatidylinositol 4-phosphate 3-kinase C2 domain-containing subunit alpha (Homo sapiens) (UniProt O00443); assay: Inhibition of human PI3KC2alpha at 1 uM relative to control
[2] = target: PI3-kinase p110-alpha/p85-alpha (Homo sapiens, UniProt P42336); assay: Inhibition of p110alpha/p85alpha (unknown origin) incubated for 2 hrs in presence of ATP by ADP-kinaseGlo reagent based assay; format: protein-complex assay
SUD4 [3] = assay: Induction of apoptosis in human SU-DHL-4 cells assessed as necrotic cells at 1 uM incubated for 24 hrs by Annexin V-FITC/PI staining based flow cytometric analysis (reference value: 0.642 %); format: functional
[4] = target: Bromodomain-containing protein 3 (Homo sapiens, UniProt Q15059); assay: Inhibition of His-tagged BRD3-BD1 (unknown origin) incubated for 30 mins in presence of ATP by Alphascreen assay
[5] = target: PI3-kinase p110-alpha/p85-alpha (Homo sapiens) (UniProt P27986+P42336); assay: Inhibition of human p110alpha/p85alpha at 1 uM relative to control; format: protein-complex assay
[6] = Toxicity in female BALB/c mouse model xenografted with human SU-DHL-6 cells assessed as effect on lung histopathology at 20 mg/kg, po administered once daily via gavage for 15 days by H and E staining based analysis; format: organism-based; conditions: in vivo, 360 h, time 15 day
[7] = target: Bromodomain testis-specific protein (Homo sapiens, UniProt Q58F21); assay: Inhibition of His-tagged BRDT-BD1 (unknown origin) incubated for 30 mins in presence of ATP by Alphascreen assay
[8] = target: Phosphatidylinositol 4-phosphate 5-kinase type-1 alpha (Homo sapiens) (UniProt Q99755); assay: Inhibition of human PIP5K1alpha at 1 uM relative to control
SU-DHL-6 [9] = assay: Antitumor activity against human SU-DHL-6 cells xenografted in female BALB/c mouse model assessed as reduction in c-Myc level in tumor at 20 mg/kg, po administered once daily via gavage for 15 days by Western blot analysis; format: functional, organism-based; conditions: time 15.0 day
SU-DHL-6 [10] = assay: Induction of apoptosis in human SU-DHL-6 cells assessed as necrotic cells at 0.25 uM incubated for 24 hrs by Annexin V-FITC/PI staining based flow cytometric analysis (reference value: 0.246 %); format: functional
SUD4 [11] = assay: Induction of apoptosis in human SU-DHL-4 cells assessed as early apoptotic cells at 0.5 uM incubated for 24 hrs by Annexin V-FITC/PI staining based flow cytometric analysis (reference value: 25.3 %); format: functional
[12] = target: PI3K p110 beta/p85 alpha (Homo sapiens) (UniProt P27986+P42338); assay: Inhibition of human p110beta/p85alpha at 1 uM relative to control; format: protein-complex assay
WI-38 = assay: Cytotoxicity against human WI-38 cells assessed as effect on cell proliferation at 5 to 20 uM incubated for 72 hrs by Celltiter-luminescence analysis; format: toxicity, cell-based; conditions: wi-38, 72 h, dose 5-20 µM
SUD4 [13] = assay: Downregulation of c-Myc expression in human SU-DHL-4 cells at 0.25 to 1 uM incubated for 12 hrs by Western blot analysis; format: functional, cell-based; conditions: dose 0.25-1 µM

Chain of Phosphatidylinositol 4-phosphate 3-kinase C2 domain-containing subunit alpha (Homo sapiens) (O00443 whole entry, the tested form may be a part): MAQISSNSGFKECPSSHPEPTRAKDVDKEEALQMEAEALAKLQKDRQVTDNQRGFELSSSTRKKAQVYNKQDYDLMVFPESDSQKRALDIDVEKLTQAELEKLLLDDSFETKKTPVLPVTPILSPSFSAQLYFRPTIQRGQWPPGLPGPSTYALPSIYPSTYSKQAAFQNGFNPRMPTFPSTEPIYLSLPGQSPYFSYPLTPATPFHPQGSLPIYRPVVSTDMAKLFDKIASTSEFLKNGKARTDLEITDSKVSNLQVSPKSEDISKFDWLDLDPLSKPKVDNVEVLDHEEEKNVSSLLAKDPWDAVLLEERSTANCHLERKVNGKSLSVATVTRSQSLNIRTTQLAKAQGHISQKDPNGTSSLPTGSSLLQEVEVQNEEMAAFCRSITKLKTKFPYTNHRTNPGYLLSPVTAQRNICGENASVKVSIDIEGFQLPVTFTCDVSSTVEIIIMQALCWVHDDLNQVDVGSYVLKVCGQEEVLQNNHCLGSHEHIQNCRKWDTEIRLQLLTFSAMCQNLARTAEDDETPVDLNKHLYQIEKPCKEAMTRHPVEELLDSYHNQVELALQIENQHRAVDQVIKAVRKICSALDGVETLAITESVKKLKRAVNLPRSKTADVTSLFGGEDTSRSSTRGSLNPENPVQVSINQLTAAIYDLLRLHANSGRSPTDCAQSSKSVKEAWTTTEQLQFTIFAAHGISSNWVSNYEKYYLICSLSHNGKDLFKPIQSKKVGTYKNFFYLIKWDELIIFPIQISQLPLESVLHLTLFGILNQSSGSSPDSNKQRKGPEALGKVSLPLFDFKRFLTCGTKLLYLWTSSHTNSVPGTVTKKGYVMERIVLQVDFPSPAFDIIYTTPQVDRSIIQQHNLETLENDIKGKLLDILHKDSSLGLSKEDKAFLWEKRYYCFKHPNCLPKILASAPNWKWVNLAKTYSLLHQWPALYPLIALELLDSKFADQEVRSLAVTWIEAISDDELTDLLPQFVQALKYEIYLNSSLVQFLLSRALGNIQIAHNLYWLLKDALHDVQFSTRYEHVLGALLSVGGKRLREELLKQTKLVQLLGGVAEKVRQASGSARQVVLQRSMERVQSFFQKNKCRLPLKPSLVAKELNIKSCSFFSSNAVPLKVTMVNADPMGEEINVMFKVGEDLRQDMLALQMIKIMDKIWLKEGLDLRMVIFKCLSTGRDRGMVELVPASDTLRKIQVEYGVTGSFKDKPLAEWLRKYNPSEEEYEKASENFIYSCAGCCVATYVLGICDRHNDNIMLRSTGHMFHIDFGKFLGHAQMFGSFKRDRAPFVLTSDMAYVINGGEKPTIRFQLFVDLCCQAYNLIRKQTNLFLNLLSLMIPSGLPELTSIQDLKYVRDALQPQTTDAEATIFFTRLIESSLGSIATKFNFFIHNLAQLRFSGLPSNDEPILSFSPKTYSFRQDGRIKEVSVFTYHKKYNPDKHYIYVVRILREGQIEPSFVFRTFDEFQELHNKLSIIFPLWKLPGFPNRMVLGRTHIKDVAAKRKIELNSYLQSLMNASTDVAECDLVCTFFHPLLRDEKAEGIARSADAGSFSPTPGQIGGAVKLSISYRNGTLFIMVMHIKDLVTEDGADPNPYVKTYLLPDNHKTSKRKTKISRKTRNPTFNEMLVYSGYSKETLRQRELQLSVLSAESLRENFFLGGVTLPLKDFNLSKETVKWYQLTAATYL
Chain of PI3K p110 beta/p85 alpha (Homo sapiens) (P27986 2-724 limits assumed): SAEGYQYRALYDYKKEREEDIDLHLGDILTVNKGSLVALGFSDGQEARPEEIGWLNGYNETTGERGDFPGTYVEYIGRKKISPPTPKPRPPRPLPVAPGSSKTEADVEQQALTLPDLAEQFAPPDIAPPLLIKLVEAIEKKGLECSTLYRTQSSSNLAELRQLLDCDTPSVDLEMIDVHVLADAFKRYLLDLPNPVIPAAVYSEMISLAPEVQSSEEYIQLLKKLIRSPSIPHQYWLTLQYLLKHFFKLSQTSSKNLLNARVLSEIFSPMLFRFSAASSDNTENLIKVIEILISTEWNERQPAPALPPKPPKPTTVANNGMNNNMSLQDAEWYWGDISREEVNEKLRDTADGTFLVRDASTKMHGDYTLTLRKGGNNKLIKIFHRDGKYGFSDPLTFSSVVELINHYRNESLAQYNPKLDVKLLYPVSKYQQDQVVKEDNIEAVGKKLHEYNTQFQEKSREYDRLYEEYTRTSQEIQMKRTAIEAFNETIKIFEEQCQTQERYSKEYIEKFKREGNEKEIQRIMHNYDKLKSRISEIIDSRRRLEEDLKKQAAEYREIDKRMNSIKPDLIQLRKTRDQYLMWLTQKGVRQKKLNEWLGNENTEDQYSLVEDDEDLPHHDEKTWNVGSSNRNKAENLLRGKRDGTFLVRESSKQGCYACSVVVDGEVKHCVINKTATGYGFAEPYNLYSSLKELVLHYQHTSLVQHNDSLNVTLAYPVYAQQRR
Chain of PI3K p110 beta/p85 alpha (Homo sapiens) (P42338 whole entry partner): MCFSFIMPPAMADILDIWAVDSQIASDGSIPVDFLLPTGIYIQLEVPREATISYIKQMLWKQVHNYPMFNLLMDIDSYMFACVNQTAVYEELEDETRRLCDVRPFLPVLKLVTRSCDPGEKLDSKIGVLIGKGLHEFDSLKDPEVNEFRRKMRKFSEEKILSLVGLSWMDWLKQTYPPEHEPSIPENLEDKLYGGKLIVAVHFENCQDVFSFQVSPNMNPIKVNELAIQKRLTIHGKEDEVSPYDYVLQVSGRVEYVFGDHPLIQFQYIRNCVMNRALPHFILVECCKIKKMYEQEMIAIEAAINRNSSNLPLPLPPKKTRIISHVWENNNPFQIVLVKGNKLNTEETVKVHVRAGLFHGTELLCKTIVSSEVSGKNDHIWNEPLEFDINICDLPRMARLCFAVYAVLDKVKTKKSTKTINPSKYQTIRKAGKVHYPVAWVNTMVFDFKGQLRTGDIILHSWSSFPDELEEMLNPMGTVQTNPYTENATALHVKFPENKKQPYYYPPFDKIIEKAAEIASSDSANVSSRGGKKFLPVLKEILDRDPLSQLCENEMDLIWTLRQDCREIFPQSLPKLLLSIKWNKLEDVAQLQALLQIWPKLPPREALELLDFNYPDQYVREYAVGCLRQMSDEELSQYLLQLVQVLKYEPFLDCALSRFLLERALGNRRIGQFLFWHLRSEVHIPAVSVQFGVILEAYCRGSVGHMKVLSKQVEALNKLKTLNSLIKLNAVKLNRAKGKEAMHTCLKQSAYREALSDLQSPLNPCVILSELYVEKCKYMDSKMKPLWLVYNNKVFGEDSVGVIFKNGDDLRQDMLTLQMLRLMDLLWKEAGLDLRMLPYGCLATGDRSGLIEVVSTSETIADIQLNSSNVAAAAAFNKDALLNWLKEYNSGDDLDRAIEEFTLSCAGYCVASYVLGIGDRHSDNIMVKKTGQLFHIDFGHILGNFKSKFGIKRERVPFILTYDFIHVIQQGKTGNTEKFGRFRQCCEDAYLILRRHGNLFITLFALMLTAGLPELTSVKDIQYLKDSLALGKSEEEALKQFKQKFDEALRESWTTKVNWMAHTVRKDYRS
Chain of Phosphatidylinositol 4-phosphate 5-kinase type-1 alpha (Homo sapiens) (Q99755 whole entry): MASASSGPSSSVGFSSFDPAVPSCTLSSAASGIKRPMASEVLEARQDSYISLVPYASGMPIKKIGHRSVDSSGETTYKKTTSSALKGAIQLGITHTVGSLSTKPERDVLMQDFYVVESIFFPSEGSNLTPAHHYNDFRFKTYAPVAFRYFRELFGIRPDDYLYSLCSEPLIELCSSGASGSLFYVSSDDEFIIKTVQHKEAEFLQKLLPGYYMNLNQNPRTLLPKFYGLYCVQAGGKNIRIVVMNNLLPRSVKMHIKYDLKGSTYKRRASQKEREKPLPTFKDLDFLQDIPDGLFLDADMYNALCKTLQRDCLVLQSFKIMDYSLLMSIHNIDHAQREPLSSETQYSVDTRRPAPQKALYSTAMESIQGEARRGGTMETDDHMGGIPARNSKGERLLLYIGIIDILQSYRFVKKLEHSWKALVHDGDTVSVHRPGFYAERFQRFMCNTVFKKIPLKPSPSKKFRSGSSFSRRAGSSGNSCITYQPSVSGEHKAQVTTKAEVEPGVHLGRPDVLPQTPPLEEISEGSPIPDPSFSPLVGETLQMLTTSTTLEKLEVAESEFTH
Chain of Bromodomain-containing protein 3 (Q15059 whole entry): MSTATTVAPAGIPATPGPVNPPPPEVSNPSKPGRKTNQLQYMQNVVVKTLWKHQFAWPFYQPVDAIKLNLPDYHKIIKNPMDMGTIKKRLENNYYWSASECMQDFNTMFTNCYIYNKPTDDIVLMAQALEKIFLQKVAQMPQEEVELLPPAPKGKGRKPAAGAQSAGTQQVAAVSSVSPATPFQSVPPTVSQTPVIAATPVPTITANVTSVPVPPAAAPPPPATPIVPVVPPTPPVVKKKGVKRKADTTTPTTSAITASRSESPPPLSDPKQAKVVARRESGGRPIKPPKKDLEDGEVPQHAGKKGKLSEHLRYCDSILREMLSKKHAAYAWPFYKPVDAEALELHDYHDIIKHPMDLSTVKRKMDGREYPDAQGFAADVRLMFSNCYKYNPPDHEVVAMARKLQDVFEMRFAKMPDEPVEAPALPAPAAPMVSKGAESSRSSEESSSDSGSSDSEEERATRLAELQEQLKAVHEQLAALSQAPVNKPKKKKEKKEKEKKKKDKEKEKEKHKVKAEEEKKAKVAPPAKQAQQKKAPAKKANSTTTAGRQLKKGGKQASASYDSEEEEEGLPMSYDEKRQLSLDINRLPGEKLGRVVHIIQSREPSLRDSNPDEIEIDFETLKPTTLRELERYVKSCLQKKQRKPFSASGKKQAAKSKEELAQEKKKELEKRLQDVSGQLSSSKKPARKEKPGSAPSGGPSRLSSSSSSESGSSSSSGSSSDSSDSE

inhibition [1]: 3.4% | IC50 [2]: 6130 nM | IC50 [4]: 32 nM | inhibition [5]: 41% | IC50 [7]: 46 nM | inhibition [8]: 72.6% | inhibition [12]: 44.3%
SMILES: Cn1cc(-c2nc(N3CCOCC3)c3sc(CN4CCC(C(C)(C)O)CC4)cc3n2)c2cc[nH]c2c1=O
Activity (SUD4 [3]): 0.505% | Activity [6]: Non-toxic | Activity (SU-DHL-6 [9]): Active | Activity (SU-DHL-6 [10]): 0.481% | Activity (SUD4 [11]): 30.8% | Activity (WI-38): Non-toxic | Activity (SUD4 [13]): Active
